Test results reported in ChEMBL document CHEMBL1201862, “PubChem BioAssay data set” (2004).
Active and inactive are the calls of the source.

Tests used:
[1] = Luminescence Cell-Based Dose Response HTS to Identify Inhibitors of 5'UTR Stem-Loop Driven Prion Protein mRNA Translation in H4 Neuroglioblastoma Cells. [Related pubchem assays: 1827 (Project Summary), 1813 (Primary HTS)]; assay type: functional
[2] = inhibitors of SNCA 5'UTR-driven reporter translation, confirmation, H4 neuroglioma cells, luminescence (AID 1988); assay type: functional, cell-based
[3] = Counterscreen for AddAB inhibitors: absorbance-based bacterial cell-based high throughput dose response assay for inhibitors of bacterial viability. [Related pubchem assays (depositor defined):AID435030, AID449728, AID449731, AID488942, AID488955, AID488956]; assay type: functional
Streptokinase A = target: T1, Streptokinase A (Streptococcus pyogenes serotype M1, UniProt P10520); test: S. pyogenes streptokinase expression inhibitors, potency, dose response, plasminogen activation absorbance, OD405 (AID 1914); assay type: functional, Streptococcus pyogenes M1 GAS;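 further: secreted streptokinase activity via plasminogen activation per viability signal from cell pellet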
T1 sequence (P10520 whole entry): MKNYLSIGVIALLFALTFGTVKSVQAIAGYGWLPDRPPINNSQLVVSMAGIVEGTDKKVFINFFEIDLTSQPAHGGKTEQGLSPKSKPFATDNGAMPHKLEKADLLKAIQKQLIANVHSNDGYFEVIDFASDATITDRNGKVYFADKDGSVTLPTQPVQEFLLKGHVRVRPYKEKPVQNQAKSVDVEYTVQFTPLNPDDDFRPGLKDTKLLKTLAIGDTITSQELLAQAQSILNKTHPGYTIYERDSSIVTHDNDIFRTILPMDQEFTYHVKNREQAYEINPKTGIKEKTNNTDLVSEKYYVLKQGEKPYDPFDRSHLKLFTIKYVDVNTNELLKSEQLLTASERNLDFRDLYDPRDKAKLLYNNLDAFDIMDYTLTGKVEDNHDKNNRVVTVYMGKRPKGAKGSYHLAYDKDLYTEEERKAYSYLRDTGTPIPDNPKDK

[4] = Fluorescence-based cell-based high throughput dose response assay for inhibitors of the interaction of nucleotide-binding oligomerization domain containing 2 (NOD2) and the receptor-interacting serine-threonine kinase 2 (RIPK2).; assay type: functional; settings: Homo sapiens
[5] = HEK293T cytotoxicity, dose response, cytotoxicity control for miR-122 modulator project, cell-based, activator set, cherry-pick (AID 720690); assay type: functional;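 further: HEK293T human cells scored for general mammalian cytotoxicity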
[6] = HEK293T cytotoxicity, dose response, cytotoxicity control for miR-122 modulator project, cell-based, inhibitor set, cherry-pick, set 2 (AID 720697); assay type: functional
[7] = miR-122 activators in hepatoma reporter cells, dose response, cell-based, Huh7 psiCHECK-miR122, Renilla luciferase, cherry-picked (AID 651956); assay type: functional;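 further: huh7 hepatoma cells stably carrying a psiCHECK-2 miR-122 sensor plasmid; renilla luciferase signal reporting endogenous miR-122 activity after 48 h compound exposure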
[8] = target: Apoptotic protease-activating factor 1 (Homo sapiens, UniProt O14727); assay type: functional
SUMO-activating enzyme = SUMO-activating enzyme (Homo sapiens, UniProt Q9UBT2); test: inhibitors of in vitro SUMOylation cascade, primary screen, biochemical, HTRF, uHTS (AID 2006); assay type: protein-complex assay
[9] = target: Voltage-gated N-type calcium channel alpha-1B subunit/Amyloid beta A4 precursor protein-binding family A member 1 (Homo sapiens, UniProt Q00975+Q02410); assay type: protein assay
[10] = target: T2, RNA-binding protein pos-1 (Caenorhabditis elegans, UniProt G5EF15); test: inhibitors of POS-1/mex-3 RNA binding, dose response, biochemical, fluorescence polarization (AID 1964);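 further: purified POS-1 fused to maltose binding protein made in E. coli; potency of compounds blocking POS-1 binding to fluorescent RNA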
T2 sequence (G5EF15 whole entry): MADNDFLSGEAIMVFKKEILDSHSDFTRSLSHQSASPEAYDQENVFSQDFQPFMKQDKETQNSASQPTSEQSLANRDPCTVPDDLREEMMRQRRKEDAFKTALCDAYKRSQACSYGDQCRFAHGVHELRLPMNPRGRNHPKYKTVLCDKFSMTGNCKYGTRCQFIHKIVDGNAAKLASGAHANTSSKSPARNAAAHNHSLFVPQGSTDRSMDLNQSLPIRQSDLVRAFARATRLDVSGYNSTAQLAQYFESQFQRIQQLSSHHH

[11] = target: T3, Short transient receptor potential channel 4 (Mus musculus, UniProt Q9QUQ5); test: mouse TRPC4 channel activators, dose response, cell-based, HEK293 TRPC4/mu-opioid, Fluo-4 calcium (AID 434937); assay type: functional
T3 sequence (Q9QUQ5 whole entry): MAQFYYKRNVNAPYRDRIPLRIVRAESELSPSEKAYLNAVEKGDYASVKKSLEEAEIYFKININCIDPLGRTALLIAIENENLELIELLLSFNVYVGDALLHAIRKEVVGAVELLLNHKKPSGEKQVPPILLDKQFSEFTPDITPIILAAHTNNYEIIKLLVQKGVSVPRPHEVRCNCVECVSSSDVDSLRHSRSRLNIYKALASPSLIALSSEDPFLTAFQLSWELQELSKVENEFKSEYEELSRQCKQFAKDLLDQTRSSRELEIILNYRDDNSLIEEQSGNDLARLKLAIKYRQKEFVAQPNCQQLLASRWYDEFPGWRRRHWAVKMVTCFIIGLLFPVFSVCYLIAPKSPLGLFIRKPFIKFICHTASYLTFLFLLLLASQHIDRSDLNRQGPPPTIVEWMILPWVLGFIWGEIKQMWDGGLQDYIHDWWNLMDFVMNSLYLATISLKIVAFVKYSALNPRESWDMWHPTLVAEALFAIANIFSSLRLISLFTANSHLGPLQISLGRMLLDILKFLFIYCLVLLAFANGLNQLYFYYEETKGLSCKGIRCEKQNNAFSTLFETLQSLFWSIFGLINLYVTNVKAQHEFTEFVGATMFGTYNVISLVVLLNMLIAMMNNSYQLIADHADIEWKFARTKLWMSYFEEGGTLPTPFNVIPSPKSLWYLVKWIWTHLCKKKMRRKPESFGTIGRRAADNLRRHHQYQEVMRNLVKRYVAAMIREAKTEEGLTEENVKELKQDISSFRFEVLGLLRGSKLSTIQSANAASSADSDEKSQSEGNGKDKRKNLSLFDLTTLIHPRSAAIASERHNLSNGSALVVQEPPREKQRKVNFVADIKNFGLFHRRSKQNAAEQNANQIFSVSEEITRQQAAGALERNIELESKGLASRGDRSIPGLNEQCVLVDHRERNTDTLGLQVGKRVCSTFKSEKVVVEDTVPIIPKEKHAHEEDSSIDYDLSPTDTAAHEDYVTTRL

cells = assay type: functional, cell-based

Sequence of Apoptotic protease-activating factor 1 (O14727 whole entry): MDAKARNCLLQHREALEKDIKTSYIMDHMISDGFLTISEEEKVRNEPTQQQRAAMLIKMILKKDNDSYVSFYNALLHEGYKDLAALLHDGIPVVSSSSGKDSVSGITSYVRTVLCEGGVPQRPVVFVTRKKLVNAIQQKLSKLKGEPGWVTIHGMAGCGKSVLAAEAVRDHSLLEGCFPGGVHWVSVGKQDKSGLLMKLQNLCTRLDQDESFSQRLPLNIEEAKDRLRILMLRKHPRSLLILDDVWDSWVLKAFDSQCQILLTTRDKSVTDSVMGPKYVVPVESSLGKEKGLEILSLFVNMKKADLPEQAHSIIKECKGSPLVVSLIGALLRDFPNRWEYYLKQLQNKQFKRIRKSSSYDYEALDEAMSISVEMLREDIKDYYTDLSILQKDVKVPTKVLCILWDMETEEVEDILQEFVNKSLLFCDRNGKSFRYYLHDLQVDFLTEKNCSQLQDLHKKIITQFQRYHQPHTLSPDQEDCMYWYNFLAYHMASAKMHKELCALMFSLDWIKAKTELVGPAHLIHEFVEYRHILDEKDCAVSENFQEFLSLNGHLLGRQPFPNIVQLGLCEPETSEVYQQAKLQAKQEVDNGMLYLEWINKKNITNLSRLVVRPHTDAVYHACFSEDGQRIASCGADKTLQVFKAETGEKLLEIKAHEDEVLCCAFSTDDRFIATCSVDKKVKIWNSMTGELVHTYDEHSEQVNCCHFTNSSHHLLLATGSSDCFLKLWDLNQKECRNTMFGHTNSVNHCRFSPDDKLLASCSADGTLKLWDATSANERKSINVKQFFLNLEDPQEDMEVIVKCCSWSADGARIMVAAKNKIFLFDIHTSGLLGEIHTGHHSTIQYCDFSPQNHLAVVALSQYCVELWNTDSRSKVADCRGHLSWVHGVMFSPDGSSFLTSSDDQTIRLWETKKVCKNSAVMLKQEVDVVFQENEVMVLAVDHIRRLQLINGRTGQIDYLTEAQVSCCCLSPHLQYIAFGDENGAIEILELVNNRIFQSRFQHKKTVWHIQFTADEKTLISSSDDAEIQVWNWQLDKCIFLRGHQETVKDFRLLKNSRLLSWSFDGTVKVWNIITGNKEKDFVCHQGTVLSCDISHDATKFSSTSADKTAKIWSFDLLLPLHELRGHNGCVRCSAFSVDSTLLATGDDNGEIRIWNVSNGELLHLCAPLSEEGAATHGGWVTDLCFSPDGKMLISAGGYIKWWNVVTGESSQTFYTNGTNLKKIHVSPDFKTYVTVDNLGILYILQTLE
Sequence of Voltage-gated N-type calcium channel alpha-1B subunit/Amyloid beta A4 precursor protein-binding family A member 1 (Q00975 whole entry, the tested form may be a part): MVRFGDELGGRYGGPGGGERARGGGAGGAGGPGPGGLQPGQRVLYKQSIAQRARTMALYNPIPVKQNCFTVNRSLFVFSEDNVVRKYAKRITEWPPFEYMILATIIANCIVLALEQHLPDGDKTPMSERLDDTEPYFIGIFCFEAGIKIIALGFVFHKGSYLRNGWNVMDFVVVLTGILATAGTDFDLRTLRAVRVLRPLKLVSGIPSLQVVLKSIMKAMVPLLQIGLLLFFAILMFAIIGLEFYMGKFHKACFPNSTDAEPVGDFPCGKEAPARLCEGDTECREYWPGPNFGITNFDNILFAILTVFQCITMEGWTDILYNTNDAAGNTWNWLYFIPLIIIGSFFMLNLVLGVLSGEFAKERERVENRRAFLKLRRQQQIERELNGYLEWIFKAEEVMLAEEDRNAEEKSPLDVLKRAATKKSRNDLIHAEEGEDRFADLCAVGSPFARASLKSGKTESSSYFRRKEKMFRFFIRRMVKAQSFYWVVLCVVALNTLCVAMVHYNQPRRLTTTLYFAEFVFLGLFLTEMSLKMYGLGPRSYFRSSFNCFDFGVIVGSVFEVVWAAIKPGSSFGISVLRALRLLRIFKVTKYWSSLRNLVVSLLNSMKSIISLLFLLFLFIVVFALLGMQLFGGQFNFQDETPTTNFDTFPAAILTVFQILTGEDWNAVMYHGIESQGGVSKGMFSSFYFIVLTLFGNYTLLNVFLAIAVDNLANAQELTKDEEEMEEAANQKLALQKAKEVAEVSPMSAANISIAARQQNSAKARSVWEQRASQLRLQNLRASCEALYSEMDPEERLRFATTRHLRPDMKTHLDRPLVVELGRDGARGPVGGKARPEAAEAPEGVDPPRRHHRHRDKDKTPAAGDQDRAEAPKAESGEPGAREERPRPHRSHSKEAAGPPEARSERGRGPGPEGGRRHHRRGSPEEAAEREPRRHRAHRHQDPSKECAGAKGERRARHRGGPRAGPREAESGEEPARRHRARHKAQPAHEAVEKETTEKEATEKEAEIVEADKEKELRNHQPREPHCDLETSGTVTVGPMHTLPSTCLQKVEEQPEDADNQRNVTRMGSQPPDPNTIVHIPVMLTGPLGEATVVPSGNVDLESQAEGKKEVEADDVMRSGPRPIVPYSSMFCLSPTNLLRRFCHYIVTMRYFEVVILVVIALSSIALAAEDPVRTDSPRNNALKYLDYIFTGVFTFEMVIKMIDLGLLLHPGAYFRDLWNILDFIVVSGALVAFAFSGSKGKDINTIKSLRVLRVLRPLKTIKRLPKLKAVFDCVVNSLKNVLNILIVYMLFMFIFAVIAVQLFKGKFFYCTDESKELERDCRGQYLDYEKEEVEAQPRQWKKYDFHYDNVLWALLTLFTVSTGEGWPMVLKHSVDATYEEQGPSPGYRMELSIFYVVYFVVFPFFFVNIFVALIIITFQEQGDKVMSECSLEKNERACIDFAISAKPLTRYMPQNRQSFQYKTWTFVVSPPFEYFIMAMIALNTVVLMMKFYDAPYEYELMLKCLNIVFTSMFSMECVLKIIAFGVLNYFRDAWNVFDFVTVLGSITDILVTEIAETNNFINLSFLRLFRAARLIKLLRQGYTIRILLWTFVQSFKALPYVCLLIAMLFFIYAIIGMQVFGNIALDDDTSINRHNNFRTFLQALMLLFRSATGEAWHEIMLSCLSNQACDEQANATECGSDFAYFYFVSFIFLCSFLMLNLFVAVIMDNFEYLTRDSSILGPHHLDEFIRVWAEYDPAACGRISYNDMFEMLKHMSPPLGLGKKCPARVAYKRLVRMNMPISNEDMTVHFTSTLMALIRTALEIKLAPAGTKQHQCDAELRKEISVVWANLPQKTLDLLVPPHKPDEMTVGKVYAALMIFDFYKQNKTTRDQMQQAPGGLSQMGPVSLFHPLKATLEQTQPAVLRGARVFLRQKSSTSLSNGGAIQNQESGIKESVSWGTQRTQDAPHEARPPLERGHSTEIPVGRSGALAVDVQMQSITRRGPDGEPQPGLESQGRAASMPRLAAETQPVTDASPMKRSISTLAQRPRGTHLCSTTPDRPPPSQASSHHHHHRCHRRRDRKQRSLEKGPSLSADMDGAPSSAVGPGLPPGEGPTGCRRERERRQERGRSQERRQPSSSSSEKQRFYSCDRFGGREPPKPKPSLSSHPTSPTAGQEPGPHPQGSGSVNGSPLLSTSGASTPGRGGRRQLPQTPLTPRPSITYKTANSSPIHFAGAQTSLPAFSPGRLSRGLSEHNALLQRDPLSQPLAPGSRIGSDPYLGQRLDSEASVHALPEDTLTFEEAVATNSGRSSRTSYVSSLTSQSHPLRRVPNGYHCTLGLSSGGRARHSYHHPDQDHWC
Sequence of Voltage-gated N-type calcium channel alpha-1B subunit/Amyloid beta A4 precursor protein-binding family A member 1 (Q02410 whole entry, the tested form may be a part): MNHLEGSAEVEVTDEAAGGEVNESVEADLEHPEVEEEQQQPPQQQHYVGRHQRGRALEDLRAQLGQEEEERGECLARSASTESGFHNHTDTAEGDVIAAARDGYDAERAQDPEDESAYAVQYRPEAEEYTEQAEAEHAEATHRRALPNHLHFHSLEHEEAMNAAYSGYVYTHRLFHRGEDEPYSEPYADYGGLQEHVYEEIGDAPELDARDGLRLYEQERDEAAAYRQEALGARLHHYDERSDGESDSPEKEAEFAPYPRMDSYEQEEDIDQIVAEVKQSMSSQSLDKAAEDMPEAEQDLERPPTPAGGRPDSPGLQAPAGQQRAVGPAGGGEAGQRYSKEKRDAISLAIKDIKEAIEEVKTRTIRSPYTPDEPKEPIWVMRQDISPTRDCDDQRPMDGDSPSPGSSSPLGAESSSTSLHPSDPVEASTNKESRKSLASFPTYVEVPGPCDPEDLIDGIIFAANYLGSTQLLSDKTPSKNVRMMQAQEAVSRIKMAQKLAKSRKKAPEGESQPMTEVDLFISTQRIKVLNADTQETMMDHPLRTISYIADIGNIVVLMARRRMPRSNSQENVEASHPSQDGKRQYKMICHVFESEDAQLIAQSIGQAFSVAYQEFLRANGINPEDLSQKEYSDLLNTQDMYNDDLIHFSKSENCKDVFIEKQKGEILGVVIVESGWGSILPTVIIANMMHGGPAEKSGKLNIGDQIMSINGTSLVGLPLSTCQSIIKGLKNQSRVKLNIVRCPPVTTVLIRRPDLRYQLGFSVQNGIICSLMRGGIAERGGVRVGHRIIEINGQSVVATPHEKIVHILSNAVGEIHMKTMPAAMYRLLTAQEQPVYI

In the case of `O=C(Nc1cccc(NC(=O)c2ccccc2Cl)c1)c1ccc([N+](=O)[O-])o1`, the EC50 [1] was 9.73 µM (active), the EC50 [2] was 8.12 µM (active) and the IC50 [3] was > 119 µM (inactive). For the same compound, the EC50 (Streptokinase A) was > 150 µM (not active).
For `COc1ccc(CC2=CC(=O)c3ccccc3C2=O)cc1`, the IC50 [4] was 4.12 µM (active), the AC50 [5] was 5.27 µM (active) and the AC50 [6] was 10.2 µM (active). The EC50 (Streptokinase A) was > 150 µM (not active) and the AC50 [7] was 20.7 µM (active).
For `c1coc(-c2nnc(-c3ccco3)nn2)c1`, the IC50 [8] was 15.8 µM (active), the IC50 (SUMO-activating enzyme) was 6.47 µM (active) and the IC50 [9] was 1.66 µM (active). For the same compound, the EC50 [10] was 7.92 µM (inconclusive).
In the case of `Cn1c(O)c(/C=N/NC(=O)c2cc3ccccc3cc2O)c2ccccc21`, the EC50 [11] was 5.96 µM (active), the IC50 [3] was > 119 µM (inactive) and the EC50 (cells) was 128 µM (active).
